Source: patent publication US12029738B2, “Antiproliferative compounds and methods of use thereof” (Celgene Corporation, priority 2017, dated 2024)
Where two headings read alike, the source gives them in different places.

Experiments:
[1] = system: MM cell lines (NCI-H929, NCI-H929-1051, OPM2, OPM2-P10); assay: Cell proliferation assay (CTG, 120 h), four cell lines together; assay type: cell-based; settings: Homo sapiens, range over four cell lines and both compounds, read-out: antiproliferative IC50 values (range)
Procedure: (§1) Cell Culture Materials: Human multiple myeloma cell lines were purchased from the vendors and cultured at 37° C. with 5% CO2 in the media as indicated in Table 1. Lenalidomide and pomalidomide resistant cell lines were obtained by methods as generally described previously (Lopez-Girona et al Leukemia 2012; 26(11): 2335). All cell lines were kept in log phase, and cell density and viability were monitored by trypan blue exclusion using the Vi-cell XR cell viability analyzer (Beckman Coulter, Brea, CA).
Preparation of Solutions of Test Article: Compounds were plated into black 384-well plates (Corning Inc.) to a final DMSO volume of 0.1% assuming a maximal volume of 50 μL. […]
Cell Proliferation Assays: The effect of compounds on the proliferation/viability of the hematological cell lines (Table 1), was assessed after 120 h incubation using CTG (Promega), according to manufacturer's instructions. […] At 120 h, 25 μL per well of CTG was dispensed by a Multidrop Combi Reagent Dispenser and adenosine triphosphate (ATP) release by viable cells was measured as relative luminescence units after 30 minutes using the Envision platform.
Results. […] Proliferation was assessed using the CellTitre-Glo© assay. […] The IC50 for inhibition of cell growth by the compounds was determined for each cell line using ActivityBase software.

[2] = system: OPM2-P10 (pomalidomide-resistant); assay: Cell proliferation assay (CTG, 120 h); assay type: cell-based; settings: Homo sapiens, read-out: OPM-2.P10 120 h IC50
Procedure: as §1
(§2) Preparation of Solutions of Test Article: Compounds were plated into black 384-well plates (Corning Inc.) to a final DMSO volume of 0.1% assuming a maximal volume of 50 μL. A 10-point dose response starting at 10 μM with a 1:3 dilution was printed in duplicate by acoustic dispense using the EDC ATS-100 platform. Alternatively, the 10-point dose response starting at 10 μM with a 1:10 dilution, or starting at 100 nM with a 1:3 dilutions were used.
(§3) Cell Proliferation Assays: The effect of compounds on the proliferation/viability of the hematological cell lines (Table 1), was assessed after 120 h incubation using CTG (Promega), according to manufacturer's instructions. Hematological cell lines were dispensed into compound plates by a Multidrop Combi Reagent Dispenser (Thermo Scientific, Waltham, MA) at a concentration of 0.1×10^6 cells per mL in a 50 μL total volume. At 120 h, 25 μL per well of CTG was dispensed by a Multidrop Combi Reagent Dispenser and adenosine triphosphate (ATP) release by viable cells was measured as relative luminescence units after 30 minutes using the Envision platform.
(§4) Results. […] The MM cell lines selected for this study were lines sensitive and resistant to lenalidomide and/or pomalidomide (Table 1), two agents used in the clinic to treat myeloma patients. Proliferation was assessed using the CellTitre-Glo© assay. Results for cultures incubated with the compounds were normalized to results for control cultures for each cell line. The IC50 for inhibition of cell growth by the compounds was determined for each cell line using ActivityBase software.

NCI-H929 [3] = assay: Cell proliferation assay (CTG, 120 h); assay type: cell-based; settings: Homo sapiens
Procedure: as §1, §2, §3, §4

OPM2 = assay: Cell proliferation assay (CTG, 120 h); assay type: cell-based; settings: Homo sapiens, OPM-2
Procedure: as §1, §2, §3, §4

OPM2-P10 = assay: PBMC and MM cell treatment assay (single culture vs co-culture); assay type: cell-based, human; settings: for IC50: Homo sapiens, PBMC, read-out: Immune-mediated Cell Killing IC50
Procedure: (§5) PBMC and MM Cell Treatment Assay Procedure. Ninety-six-well dishes were pre-coated with anti-CD3 antibody (OKT3, 3 μg/mL) and incubated at 4° C. overnight before the start of the experiment. Frozen PBMC donor cells were thawed at 37° C. for 2 minutes in RPMI medium with 10% FBS and cell counts and viability were measured on the Vi-CELL analyzer. Peripheral blood mononuclear cells were washed and diluted to 1×10^6 cells/mL and dispensed into the compound-treated plates in a total volume of 200 μL. Cells were incubated with compounds for 2 h before being transferred onto anti-CD3-coated plates and incubated for an additional 72 h. At the same time, MM cell lines (NCI-H929, H929-1051, OPM2, OPM2-P10) were diluted to a final concentration of 0.1×10^6 cells/mL and labeled with CellTrace CFSE according to manufacturer's instructions. Multiple myeloma cell lines were then dispensed into compound-treated plates at a total volume of 200 μL and incubated for 72 h. After 72 h, the PBMCs and MM cells were counted and transferred into a U-bottom 96-well plate at a final T:E ratio of 1:5. After 24 h coculture, specific target cell lysis by PBMC cells was measured using Annexin V-AF647 and 7-AAD according to manufacturer's instructions and samples were run on the Attune NxT Cytometer.
(§6) Because preincubation of immune cells with Compound 2 enhanced the targeting and lysing of MM cells, the effect of preincubation of MM cells with Compound 2 on their susceptibility to immune-mediated killing was also explored (FIG. 16A, FIG. 16B, FIG. 16C, and FIG. 16D, Table 12). Four MM cell lines and anti-CD3 antibody-activated PBMCs were separately preincubated with Compound 2, lenalidomide, or pomalidomide for 72 h. When anti-CD3 antibody-activated PBMCs and MM lines were both pretreated with Compound 2, lenalidomide, or pomalidomide, followed by co-culture, the effects on the PBMC-induced MM cell lysis were enhanced both in the potency and magnitude of the killing response. […] For the pomalidomide-resistant OPM2-P10 cell line, Compound 2 treatment of the MM cells enhanced the immune-mediated killing by ˜3000-fold (Table 12).

H929-1051 = assay: as above; assay type: cell-based, human; settings: for IC50: Homo sapiens, PBMC, read-out: Immune-mediated Cell Killing IC50
Procedure: as §5, §6

NCI-H929 [4] = assay: as above; assay type: cell-based, human; settings: for IC50: Homo sapiens, NCI-H929, NCI-H929, read-out: Immune-mediated Cell Killing IC50
Procedure: as §5, §6

[5] = system: CD38 expression in MM cell lines; assay: Cell surface CD38 expression in MM cells (72 h pretreatment); assay type: cell-based, human; settings: 72 h treatment
Procedure: FIG. 17. Compound 2 upregulates CD38 expression in MM cell lines. The cell surface expression of CD38 was evaluated in MM cells pretreated with Compound 2 or pomalidomide for 72 h. The dose response effects are shown for OPM-2 and OPM-2.P10 cell lines.
The extent of CD38 expression was greater with Compound 2 and occurred at lower concentrations compared to pomalidomide. MM cells+/−Compound 2 or pomalidomide pretreatment were evaluated in ADCC assays with daratumumab. […] Compound 2 treated cells were also more sensitive to daratumumab-mediated ADCC compared to pomalidomide treated cells. The ability of Compound 2 and pomalidomide to modulate daratumumab-mediated ADCP was also tested.

RPMI-8226 = assay: PBMC and MM cell treatment assay (single culture vs co-culture); assay type: cell-based; settings: Homo sapiens, RPMI-8226, RPMI-8226, read-out: Immune-mediated Cell Killing IC50

Structure (SMILES) | IC50 [1] | IC50 [2] | IC50 (NCI-H929 [3]) | IC50 (OPM2) | enhancement of immune-mediated killing, co-culture versus single culture IC50 (OPM2-P10) | IC50 (OPM2-P10; Co-culture with PBMCs) | IC50 (OPM2-P10; Single culture) | enhancement of killing, co-culture versus single culture IC50 (H929-1051; H929-1051) | IC50 (H929-1051; H929-1051, Single culture) | IC50 (H929-1051) | IC50 (NCI-H929 [4]; Co-culture with PBMCs) | IC50 (NCI-H929 [4]; Single culture) | enhancement of killing, co-culture versus single culture IC50 (NCI-H929 [4]; NCI-H929) | CD38 expression in MM cells [5] | IC50 (RPMI-8226; Co-culture with PBMCs) | IC50 (RPMI-8226; Single culture) | IC50 (H929-1051; H929-1051, Co-culture with PBMCs)
N#Cc1ccc(N2CCN(Cc3ccc(COc4cccc5c4CN(C4CCC(=O)NC4=O)C5=O)cc3)CC2)c(F)c1 (racemic) [Compound 1, 4-(4-(4-(((2-(2,6-dioxopiperidin-3-yl)-1-oxoisoindolin-4-yl)oxy)methyl)benzyl)piperazin-1-yl)-3-fluorobenzonitrile] | 0.07 to 19 nM | 19 nM | < 0.5 nM | < 0.5 nM | – | – | – | – | – | – | – | – | – | – | – | – | –
N#Cc1ccc(N2CCN(Cc3ccc(COc4cccc5c4CN([C@H]4CCC(=O)NC4=O)C5=O)cc3)CC2)c(F)c1 [Compound 2, (S)-4-(4-(4-(((2-(2,6-dioxopiperidin-3-yl)-1-oxoisoindolin-4-yl)oxy)methyl)benzyl)piperazin-1-yl)-3-fluorobenzonitrile] | 0.07 to 19 nM | 4.3 nM | 0.07 nM | 0.07 nM | ~3000 fold | 3.1 nM | > 10000 nM | ~6000 fold | 575 nM | 0.1 nM | 0.087 nM | 581 nM | ~7000 fold | dose-dependent increase of CD38 expression | 0.0839 nM | 13.4 nM | –
Nc1cccc2c1C(=O)N(C1CCC(=O)NC1=O)C2=O (centres unmarked) [Pomalidomide, pomalidomide] | – | – | – | – | – | 1180 nM | > 10000 nM | – | > 10000 nM | – | 44.4 nM | > 10000 nM | – | dose-dependent increase of CD38 expression | 67.6 nM | > 10000 nM | 71.3 nM
